# Source: the supplement of paper PMC10307832
# Legend:
# Assay in all cases: relative viability (nuclei count vs DMSO), 5 days (fraction); higher = more cells survive
# [1] = compound: C1=CC(=CC=C1NC(=S)NNC2=C(C=C(C=C2[N+](=O)[O-])C(F)(F)F)[N+](=O)[O-])F [Kobe2602] + CS(=O)(=O)N1CCN(Cc2cc3nc(-c4cccc5[nH]ncc45)nc(N4CCOCC4)c3s2)CC1 [Pictilisib] (partner 1 µM)
# Procedure, shortened: (§1)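 Lung cancer cell lines were seeded in 1536-well plates and dosed by pin tool the next day, with either a single drug or a fixed anchor-drug dose combined with five library-drug doses (not always all listed) spaced in √10 steps. Five days later, one step fixed the cells and stained their nuclei (final 0.05% Triton X-100, 1% formaldehyde, 1 ug/ml Hoechst), and nuclei were counted on 4× images. Relative viability is the nuclei count in treated wells divided by the count in vehicle wells, and each value is the median of duplicate plates.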
# [2] = compound: O[C@@H](COc1cccc2ncccc12)CN1CCN([C@@H]2c3ccccc3[C@@H]3[C@H](c4ccccc42)C3(F)F)CC1 [Zosuquidar] + CC(=O)Nc1cccc(-n2c(=O)n(C3CC3)c(=O)c3c(Nc4ccc(I)cc4F)n(C)c(=O)c(C)c32)c1 [Trametinib] (partner 0.02 µM)
# Procedure, shortened: as §1
# [3] = compound: O[C@@H](COc1cccc2ncccc12)CN1CCN([C@@H]2c3ccccc3[C@@H]3[C@H](c4ccccc42)C3(F)F)CC1 [Zosuquidar] + NC(=O)Nc1cc(-c2cccc(F)c2)sc1C(=O)N[C@H]1CCCNC1 [AZD7762] (partner 0.2 µM)
# Procedure, shortened: as §1
# [4] = compound: O[C@@H](COc1cccc2ncccc12)CN1CCN([C@@H]2c3ccccc3[C@@H]3[C@H](c4ccccc42)C3(F)F)CC1 [Zosuquidar] + CC(=O)c1c(C)c2cnc(Nc3ccc(N4CCNCC4)cn3)nc2n(C2CCCC2)c1=O [Palbociclib] (partner 0.5 µM)
# Procedure, shortened: as §1
Cell Line,relative viability ([1]; first compound 0.2 µM),relative viability ([1]; first compound 0.6325 µM),relative viability ([1]; first compound 2 µM),relative viability ([1]; first compound 6.325 µM),relative viability ([1]; first compound 20 µM),relative viability ([2]; first compound 0.01 µM),relative viability ([2]; first compound 0.03162 µM),relative viability ([2]; first compound 0.3162 µM),relative viability ([2]; first compound 1 µM),relative viability ([3]; first compound 0.01 µM),relative viability ([3]; first compound 0.03162 µM),relative viability ([3]; first compound 0.3162 µM),relative viability ([3]; first compound 1 µM),relative viability ([4]; first compound 0.01 µM),relative viability ([4]; first compound 0.03162 µM),relative viability ([4]; first compound 0.3162 µM),relative viability ([4]; first compound 1 µM),relative viability ([2]; first compound 0.1 µM),relative viability ([3]; first compound 0.1 µM),relative viability ([4]; first compound 0.1 µM)
LCLC-97TM1,0.195,0.18,0.185,0.15,0.167,0.171,0.19,0.21,0.206,0.214,0.345,0.25,0.2,0.227,0.274,0.193,0.215,–,–,–
LCLC-103H,0.596,0.696,0.62,0.618,0.638,0.679,0.654,0.676,0.622,0.793,0.76,0.755,0.809,0.453,0.717,0.489,0.482,0.679,0.672,0.513
LK-2,0.642,0.597,0.534,0.542,0.609,0.822,0.794,0.825,0.89,0.496,0.428,0.541,0.279,0.666,0.722,0.768,0.715,0.735,0.328,0.563
LOU-NH91,0.553,0.49,0.468,0.528,0.566,0.782,0.809,0.808,0.785,0.761,0.807,0.793,0.74,0.488,0.539,0.552,0.499,0.695,0.637,0.529
LU99A,0.317,0.365,0.312,0.383,0.359,0.55,0.597,0.537,0.551,0.257,0.413,0.418,0.375,0.342,0.37,0.459,0.353,0.522,0.355,0.473
LXF-289,0.82,0.814,0.693,0.862,0.799,0.614,0.703,0.727,0.654,1.13,1.18,1.12,1.14,0.576,0.599,0.582,0.584,0.675,1.07,0.614
NCI-H23,0.47,0.581,0.491,0.516,0.497,0.363,–,0.441,0.402,0.319,–,0.331,0.224,0.45,–,0.578,0.524,0.411,0.2,0.516
NCI-H322M,0.566,0.533,0.534,0.511,0.554,0.52,0.586,0.54,0.427,0.586,0.507,0.56,0.49,0.458,0.485,0.463,0.468,0.555,0.495,0.475
NCI-H358,0.301,0.324,0.332,0.39,0.318,0.133,0.132,0.125,0.125,0.55,0.541,0.503,0.43,0.119,0.148,0.16,0.136,0.155,0.492,0.132
NCI-H441,0.46,0.495,0.538,0.483,0.409,0.417,0.464,0.557,0.437,0.991,1.33,1.23,1.19,0.239,0.223,0.281,0.242,0.345,1.09,0.216
NCI-H460,0.392,0.373,0.463,0.365,0.403,0.13,0.142,0.239,0.0685,0.54,0.571,0.607,0.509,0.15,0.18,0.171,0.19,0.157,0.6,0.203
NCI-H647,0.432,0.483,0.455,0.425,0.567,0.444,0.457,0.549,0.484,0.417,0.392,0.681,0.516,0.386,0.406,0.377,0.361,0.419,0.322,0.452
NCI-H650,0.946,0.935,0.775,0.859,0.883,1.22,0.957,0.969,1.08,0.944,0.801,1.31,0.898,0.305,0.327,0.364,0.378,1,0.897,0.331
NCI-H727,0.314,0.356,0.473,0.331,0.385,0.391,0.378,0.394,0.383,0.502,0.573,0.714,0.405,0.596,0.607,0.599,0.668,–,–,–
NCI-H838,0.393,0.489,0.426,0.422,0.418,0.561,0.465,0.617,0.509,0.939,0.997,0.948,0.904,0.217,0.223,0.225,0.227,0.487,0.898,0.218
